Values joined by “and” are separate entries in the source; they are usually repeats but may differ in a detail not shown here. Equal entries are not always repeated. Values belong to the compound of their own block, whether it stands above or below them.
Tested on: NCI-H929 complex spheroids, viability % test/control
Experiment: Anticancer human tumor NCI-H929 cell line growth inhibition [RAS];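 also: compound exposure lasted seven days before viability was read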;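 as to viability, T/C: 100% = DMSO vehicle control viability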
Details: for viability, T/C: stronger effect = lower value
Procedure, shortened: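 Tumour cells grown as complex spheroids with HUVEC endothelial cells and mesenchymal stem cells, treated with RAS pathway inhibitor combinations. Each agent spans half-log steps from near clinical Cmax, or 10 microM where Cmax is unknown.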

[1] = curve of first compound, second compound 0.000949 µM
[2] = curve of first compound, second compound 0.003 µM
[3] = curve of first compound, second compound 0.00949 µM
[4] = curve of first compound, second compound 0.03 µM
[5] = curve of first compound, second compound 0.0949 µM
[6] = curve of first compound, second compound 0.3 µM
[7] = second compound 0.000949 µM, first compound 0.0316 µM
[8] = second compound 0.000949 µM, first compound 0.1 µM
[9] = second compound 0.000949 µM, first compound 0.316 µM
[10] = second compound 0.000949 µM, first compound 1 µM
[11] = second compound 0.003 µM, first compound 0.0316 µM
[12] = second compound 0.003 µM, first compound 0.1 µM
[13] = second compound 0.003 µM, first compound 0.316 µM
[14] = second compound 0.003 µM, first compound 1 µM
[15] = second compound 0.00949 µM, first compound 0.0316 µM
[16] = second compound 0.00949 µM, first compound 0.1 µM
[17] = second compound 0.00949 µM, first compound 0.316 µM
[18] = second compound 0.00949 µM, first compound 1 µM
[19] = second compound 0.03 µM, first compound 0.0316 µM
[20] = second compound 0.03 µM, first compound 0.1 µM
[21] = second compound 0.03 µM, first compound 0.316 µM
[22] = second compound 0.03 µM, first compound 1 µM
[23] = second compound 0.0949 µM, first compound 0.0316 µM
[24] = second compound 0.0949 µM, first compound 0.1 µM
[25] = second compound 0.0949 µM, first compound 0.316 µM
[26] = second compound 0.0949 µM, first compound 1 µM
[27] = second compound 0.3 µM, first compound 0.0316 µM
[28] = second compound 0.3 µM, first compound 0.1 µM
[29] = second compound 0.3 µM, first compound 0.316 µM
[30] = second compound 0.3 µM, first compound 1 µM

- IC50 (curve of compound): > 1000 nM and 672 nM and 724 nM
SMILES: O=C(c1ccc(F)c(F)c1Nc1ccc(I)cc1F)N1CC(O)([C@@H]2CCCCN2)C1
- viability, T/C (compound 0.00316 µM): 105% [middle of 4 runs]
- viability, T/C (compound 0.01 µM): 95.4% [middle of 4 runs]
- viability, T/C (compound 0.1 µM): 96.1% [middle of 4 runs]
- viability, T/C (compound 0.316 µM): 115% [middle of 4 runs]

- IC50 [1]: > 1000 nM
- IC50 [2]: > 1000 nM
- IC50 [3]: > 1000 nM
- IC50 [4]: > 1000 nM
- IC50 [5]: > 1000 nM
- IC50 [6]: > 1000 nM
SMILES: C=CC(=O)Nc1cc(Nc2nccc(-c3cn(C)c4ccccc34)n2)c(OC)cc1N(C)CCN(C)C + CCn1c(-c2cccnc2C(C)OC)c2c3cc(ccc31)N1CCOC(CC(NC(=O)C(C(C)C)N(C)C(=O)C3(F)CCN(C(=O)C#CC(C)(C)N(C)C)CC3)C(=O)N3CCCC(N3)C(=O)OCC(C)(C)C2)C1
- viability, T/C (second compound 0.000949 µM, first compound 0.00316 µM): 105%
- viability, T/C (second compound 0.000949 µM, first compound 0.01 µM): 98.3%
- viability, T/C [7]: 110%
- viability, T/C [8]: 100%
- viability, T/C [9]: 106%
- viability, T/C [10]: 100%
- viability, T/C (second compound 0.003 µM, first compound 0.00316 µM): 101%
- viability, T/C (second compound 0.003 µM, first compound 0.01 µM): 103%
- viability, T/C [11]: 103%
- viability, T/C [12]: 102%
- viability, T/C [13]: 106%
- viability, T/C [14]: 103%
- viability, T/C (second compound 0.00949 µM, first compound 0.00316 µM): 99.2%
- viability, T/C (second compound 0.00949 µM, first compound 0.01 µM): 101%
- viability, T/C [15]: 107%
- viability, T/C [16]: 103%
- viability, T/C [17]: 107%
- viability, T/C [18]: 103%
- viability, T/C (second compound 0.03 µM, first compound 0.00316 µM): 90.5%
- viability, T/C (second compound 0.03 µM, first compound 0.01 µM): 100%
- viability, T/C [19]: 108%
- viability, T/C [20]: 107%
- viability, T/C [21]: 110%
- viability, T/C [22]: 102%
- viability, T/C (second compound 0.0949 µM, first compound 0.00316 µM): 95.6%
- viability, T/C (second compound 0.0949 µM, first compound 0.01 µM): 102%
- viability, T/C [23]: 104%
- viability, T/C [24]: 106%
- viability, T/C [25]: 107%
- viability, T/C [26]: 98.3%
- viability, T/C (second compound 0.3 µM, first compound 0.00316 µM): 99.8%
- viability, T/C (second compound 0.3 µM, first compound 0.01 µM): 102%
- viability, T/C [27]: 103%
- viability, T/C [28]: 107%
- viability, T/C [29]: 105%
- viability, T/C [30]: 101%

- IC50 (curve of compound): 1.97 nM [middle of 4 runs]
SMILES: CCc1c2c(nc3ccc(O)cc13)-c1cc3c(c(=O)n1C2)COC(=O)[C@]3(O)CC
- viability, T/C (compound 0.000949 µM): 110% and 80.3% and 104% (2×)
- viability, T/C (compound 0.003 µM): 15.8% [middle of 4 runs]
- viability, T/C (compound 0.00949 µM): 1.38% [middle of 4 runs]
- viability, T/C (compound 0.03 µM): 1.43% [middle of 4 runs]
- viability, T/C (compound 0.0949 µM): 1.87% [middle of 4 runs]
- viability, T/C (compound 0.3 µM): 1.15% [middle of 4 runs]

The next lines start with the compound.

SMILES: CC1(C)CCC(Nc2ncc(C(F)(F)F)c(-c3c[nH]c4c(P(C)(C)=O)c(C#N)ccc34)n2)CN1 (stereo not drawn) + CCn1c(-c2cc(N3CCN(C)CC3)cnc2C(C)OC)c2c3cc(ccc31)-c1csc(n1)CC(NC(=O)C1CC1C)C(=O)N1CCCC(N1)C(=O)OCC(C)(C)C2
- IC50 [1]: 2.23 nM
- IC50 [2]: 2.53 nM
- IC50 [3]: 1.94 nM
- IC50 [4]: < 0.949 nM
- IC50 [5]: < 0.949 nM
- IC50 [6]: < 0.949 nM
- viability, T/C (second compound 0.000949 µM, first compound 0.000949 µM): 116%
- viability, T/C (second compound 0.000949 µM, first compound 0.003 µM): 26.9%
- viability, T/C (second compound 0.000949 µM, first compound 0.00949 µM): 8.16%
- viability, T/C (second compound 0.000949 µM, first compound 0.03 µM): 6.16%
- viability, T/C (second compound 0.000949 µM, first compound 0.0949 µM): 4.71%
- viability, T/C (second compound 0.000949 µM, first compound 0.3 µM): 3.65%
- viability, T/C (second compound 0.003 µM, first compound 0.000949 µM): 112%
- viability, T/C (second compound 0.003 µM, first compound 0.003 µM): 39.4%
- viability, T/C (second compound 0.003 µM, first compound 0.00949 µM): 10.1%
- viability, T/C (second compound 0.003 µM, first compound 0.03 µM): 7.4%
- viability, T/C (second compound 0.003 µM, first compound 0.0949 µM): 5.4%
- viability, T/C (second compound 0.003 µM, first compound 0.3 µM): 4.64%
- viability, T/C (second compound 0.00949 µM, first compound 0.000949 µM): 91.8%
- viability, T/C (second compound 0.00949 µM, first compound 0.003 µM): 24.4%
- viability, T/C (second compound 0.00949 µM, first compound 0.00949 µM): 8.42%
- viability, T/C (second compound 0.00949 µM, first compound 0.03 µM): 5.44%
- viability, T/C (second compound 0.00949 µM, first compound 0.0949 µM): 5.01%
- viability, T/C (second compound 0.00949 µM, first compound 0.3 µM): 4.22%
- viability, T/C (second compound 0.03 µM, first compound 0.000949 µM): 16.8%
- viability, T/C (second compound 0.03 µM, first compound 0.003 µM): 5.53%
- viability, T/C (second compound 0.03 µM, first compound 0.00949 µM): 2.91%
- viability, T/C (second compound 0.03 µM, first compound 0.03 µM): 2.43%
- viability, T/C (second compound 0.03 µM, first compound 0.0949 µM): 1.95%
- viability, T/C (second compound 0.03 µM, first compound 0.3 µM): 1.14%
- viability, T/C (second compound 0.0949 µM, first compound 0.000949 µM): 2.94%
- viability, T/C (second compound 0.0949 µM, first compound 0.003 µM): 1.38%
- viability, T/C (second compound 0.0949 µM, first compound 0.00949 µM): 1.46%
- viability, T/C (second compound 0.0949 µM, first compound 0.03 µM): 0.67%
- viability, T/C (second compound 0.0949 µM, first compound 0.0949 µM): 0.66%
- viability, T/C (second compound 0.0949 µM, first compound 0.3 µM): 0.53%
- viability, T/C (second compound 0.3 µM, first compound 0.000949 µM): 1.65%
- viability, T/C (second compound 0.3 µM, first compound 0.003 µM): 0.63%
- viability, T/C (second compound 0.3 µM, first compound 0.00949 µM): 0.85%
- viability, T/C (second compound 0.3 µM, first compound 0.03 µM): 1.47%
- viability, T/C (second compound 0.3 µM, first compound 0.0949 µM): 0.57%
- viability, T/C (second compound 0.3 µM, first compound 0.3 µM): 0.6%

SMILES: CC(=O)OC12COC1CC(O)C1(C)C(=O)C(O)C3=C(C)C(OC(=O)C(O)C(NC(=O)OC(C)(C)C)c4ccccc4)CC(O)(C(OC(=O)c4ccccc4)C21)C3(C)C (stereo not drawn) + CCn1c(-c2cccnc2C(C)OC)c2c3cc(ccc31)N1CCOC(CC(NC(=O)C(C(C)C)N(C)C(=O)C3(F)CCN(C(=O)C#CC(C)(C)N(C)C)CC3)C(=O)N3CCCC(N3)C(=O)OCC(C)(C)C2)C1
- IC50 [1]: < 31.6 nM
- IC50 [2]: < 31.6 nM
- IC50 [3]: < 31.6 nM
- IC50 [4]: < 31.6 nM
- IC50 [5]: < 31.6 nM
- IC50 [6]: < 31.6 nM
- viability, T/C [7]: 0.74%
- viability, T/C [8]: 0.57%
- viability, T/C [9]: 0.52%
- viability, T/C [10]: 0.54%
- viability, T/C (second compound 0.000949 µM, first compound 3.16 µM): 0.6%
- viability, T/C (second compound 0.000949 µM, first compound 10 µM): 0.65%
- viability, T/C [11]: 0.76%
- viability, T/C [12]: 0.89%
- viability, T/C [13]: 0.7%
- viability, T/C [14]: 0.54%
- viability, T/C (second compound 0.003 µM, first compound 3.16 µM): 0.6%
- viability, T/C (second compound 0.003 µM, first compound 10 µM): 0.71%
- viability, T/C [15]: 0.76%
- viability, T/C [16]: 0.82%
- viability, T/C [17]: 0.62%
- viability, T/C [18]: 0.64%
- viability, T/C (second compound 0.00949 µM, first compound 3.16 µM): 0.66%
- viability, T/C (second compound 0.00949 µM, first compound 10 µM): 0.68%
- viability, T/C [19]: 0.73%
- viability, T/C [20]: 0.53%
- viability, T/C [21]: 0.75%
- viability, T/C [22]: 0.63%
- viability, T/C (second compound 0.03 µM, first compound 3.16 µM): 0.5%
- viability, T/C (second compound 0.03 µM, first compound 10 µM): 0.52%
- viability, T/C [23]: 0.63%
- viability, T/C [24]: 0.57%
- viability, T/C [25]: 0.51%
- viability, T/C [26]: 0.63%
- viability, T/C (second compound 0.0949 µM, first compound 3.16 µM): 0.58%
- viability, T/C (second compound 0.0949 µM, first compound 10 µM): 0.72%
- viability, T/C [27]: 0.63%
- viability, T/C [28]: 0.68%
- viability, T/C [29]: 0.63%
- viability, T/C [30]: 0.6%
- viability, T/C (second compound 0.3 µM, first compound 3.16 µM): 0.65%
- viability, T/C (second compound 0.3 µM, first compound 10 µM): 0.71%

— PubChem BioAssay AID2060884 (Molecular Pharmacology Branch, DTP, NCI, 2025)
